This is an account of results in PMC10303838, “Atlantic Salmon Gill Epithelial Cell Line (ASG-10) as a Suitable Model for Xenobiotic Biotransformation” (Metabolites, 2023).

Structures can show the parent of a compound that is named as a salt. Where two headings read alike, the source gives them in different places.

The test system of series [1] is ASG-10. The series can be described thus: CYP activities in ASG-10: metabolite formation from specific substrates (LC-TQMS). As to conditions: non-induced cells, combined substrates 2; 5; 10 µM, 24 h, 19 °C.
Series [2] relates to CYP1A1. Set-up: method as in doi:10.1002/etc.5620161220. The following applies: juvenile Atlantic salmon; cited from earlier work.
The test system of series [3] is CYP2K1. Set-up: method as in doi:10.1002/etc.5620161220. As to conditions: juvenile Atlantic salmon; cited from earlier work.
Series [4] concerns CYP3A27. Set-up: method as in doi:10.1002/etc.5620161220. The following applies: juvenile Atlantic salmon; cited from earlier work.
Series [5] is described as follows: CYP activities in salmon liver microsomes (SLMs) and S9. As to conditions: both SLMs (2 mg/mL protein) and S9 (4 mg/mL protein), 20 °C, up to 60 min. In general terms: Microsomes from liver hold many membrane-bound enzymes, among them those of drug oxidation.
The subject of series [6] is ASG-10. Put plainly: BZ metabolism in ASG-10 (LC-HRMS/MS). The class given is in vitro ADME, Atlantic salmon (Salmo salar). As to conditions: 303 µM BZ, 24 h, 45,000 or 90,000 cells/well, LC-HRMS peak areas.
Description: BZ, an anesthetic commonly used in aquaculture, was used to evaluate the potential activity of N-acetyltransferases (NAT) and esterases in ASG-10, SLMs and S9. The production of BZ-related metabolites was determined by liquid chromatography high-resolution tandem mass spectrometry (LC-HRMS/MS). When available, reference standards were used for the specification of metabolites.
BZ metabolism was investigated in ASG-10 cells plated in a 96-well plate as described in Section 2.2. The culture medium was replaced by fresh medium containing BZ (Table 1).
(§1) BZ biotransformation products were determined using a Q Exactive™ hybrid quadrupole-Orbitrap mass spectrometer equipped with a heated electrospray ion source (HESI-II) and coupled to a Vanquish UHPLC system (Thermo Fisher Scientific). […]
(§2) Mass spectra were acquired in the full scan mode, applying sequential data-dependent top 5 analysis (ddMS2-top5) with an inclusion list containing masses of interest. […] BZ and BZ-related compounds were determined by targeted parallel reaction monitoring (PRM). […]
The mobile phase was composed of solvent A (water) and solvent B (MeOH), both containing 0.1% formic acid. […] Raw data were acquired by Xcalibur (Version 4.0, Thermo Fisher Scientific), and molecular formula assignments and mass error were evaluated within the same software (Elemental Composition tab). […]
Series [7] in a line: Incubation of N-acetylated BZ (AcBZ) in SLMs, hydroxylation. The following applies: AcBZ as starting substance, 1 h. The class given is in vitro ADME, Atlantic salmon. The method, then:
A volume of 30 µL of 1 mg/mL BZ in 100% MeOH was evaporated (40 °C, N2) in a 1.5 mL vial. The residue was redissolved in 100 µL acetic anhydride (Sigma) and 100 µL pyridine (Sigma). The vial was placed at room temperature for 18 h. Subsequently, the reaction was stopped by the addition of 200 µL 100% MeOH. After evaporation, the residue was dissolved in 150 µL 100% MeOH (solution A). As control, 30 µL of BZ solution was evaporated and re-dissolved in 150 µL 100% MeOH (solution B). Afterwards, 3 µL of solutions A and B were incubated in SLMs as described above.

On the set-up of series [8]: method as in doi:10.1016/S0166-445X(96)00792-8. The following applies: channel catfish; cited from earlier work.
Series [9] relates to CYP1A. Put plainly: CYP1A immunochemical analysis (immunoblot) in BNF-stimulated ASG-10. Format: cell-based, Atlantic salmon (Salmo salar). The following applies: 24 h. Here is the method:
The ASG-10 cells were seeded into 6-well plates as described in Section 2.2. After two days, the cells were stimulated with BNF (1–100 nM, 24 h), a well-known non-toxic inducer of CYP1A protein expression. After exposure, the cells were washed twice in ice-cold PBS and placed at −70 °C until the next day. The cells were then scraped in cell lysis buffer with 0.8% SDS and 1% proteinase inhibitor cocktail added and centrifuged (10,000× g, 1 min) through use of the QIAshredder for homogenization. The protein concentrations were quantified by using the Bio-Rad DC kit (Hercules, CA, USA) and the samples were adjusted to equal protein concentration with lysis buffer before being denatured through the addition of NuPage lithium dodecyl sulfate (LDS) sample buffer and NuPage reducing agent as described by the manufacturer (Invitrogen, Waltham, MA, USA). Blotting was performed using the NuPage Novex system from Invitrogen (Thermo Fisher), applying […] protein per well on a 4–12% NuPage BisTris gel. Separation was performed under reducing conditions for 40 min at 200 V in 3-(N-morpholino) propane sulfonic acid (MOPS)–SDS running buffer using the Novex Sharp pre-stained standard with a range of 3.5–260 kDa. […]
(Immunoblotting shows a protein as a band on a membrane.)

Series [10] has as its system CYP1A. Put plainly: EROD assay in BNF-stimulated ASG-10. Format: cell-based, Atlantic salmon (Salmo salar). As to conditions: ASG-10, BNF 1 to 100 nM, 24 h. The method, then: CYP1A induction in BNF-stimulated ASG-10 was measured using the ethoxyresorufin-O-deethylase (EROD) assay. CYP1A converts 7-ethoxyresorufin to resorufin, which can be measured by fluorescence spectroscopy. The assay was performed as described in [17], with minor modifications. Briefly, the cells were seeded in a black 96-well plate as described in Section 2.2. After two days, the cells were incubated with the CYP1A inducer β-naphthoflavone (BNF; 1–100 nM) for 24 h. BNF was dissolved in DMSO. The final DMSO concentration in the cell culture was 0.1%. Appropriate controls containing the same amount of DMSO were included in each experiment. The next day, the culture medium was replaced with 200 µL EROD assay media (DMEM w/o phenol red; 10% FBS, 8 µM 7-ethoxyresorufin), and resorufin fluorescence (excitation: 530 nm/emission: 580 nm) was detected after 60 min using a Spectramax i3x plate reader.

For series [11], the system named is CYP1A. Details: method as in doi:10.1002/etc.5620160509. As to conditions: PLHC-1, 24 h; cited from earlier work.
For series [12], the system named is CYP1A. Details: method as in doi:10.1002/etc.5620160509. The following applies: cited from earlier work.
Series [13] has as its system CYP1A. Details: method as in PMID 10630570. The following applies: primary carp hepatocytes, 20 nM, 18 h; cited from earlier work.
The test system of series [14] is CYP1A. Details: method as in PMID 1897246. The following applies: rainbow trout liver primary cells, 3.6 to 360 nM BNF, 48 h, dose-dependent; cited from earlier work.
Series [15] has as its system CYP1A1. Details: method as in PMID 12413795. The following applies: BNF exposure; cited from earlier work.
Series [16] relates to ASG-10. The series can be described thus: Alamar Blue assay, metabolic activity/viability of ASG-10. The class given is cell-based, Atlantic salmon (Salmo salar). The following applies: ASG-10, 121 or 303 µM BZ, 24 h. Here is the method: Alamar Blue assay: The metabolic activity/viability of the ASG-10 cell line was measured using the Alamar Blue assay according to the manufacturer’s protocol (Thermo Fisher). After exposure to test compounds with potential cell toxicity, Alamar Blue was added to the cell culture, and incubated for 3 h. […] The fluorescence (excitation: 555 nm/emission: 585 nm) was quantified using a Spectramax i3x plate reader (Molecular Devices, San Jose, CA, USA).

The test system of series [17] is ASG-10. Put plainly: CellTox Green cytotoxicity assay in ASG-10. Format: cell-based, Atlantic salmon (Salmo salar). The following applies: ASG-10, 121 or 303 µM BZ, 48 h. The method, then:
CellTox™ Green assay: The non-toxic dye CellTox™ Green stains DNA in cells with impaired membrane integrity. Binding interactions with DNA produce a fluorescence signal that is proportional to cytotoxicity (necrotic, late apoptotic cells). CellTox™ Green dye was added to the cells as described by the manufacturer (Promega) and fluorescence visualized by microscopy (Zeiss Observer A1, Carl Zeiss, Oberkochen, Germany).

For series [18] the following is noted: cited from earlier work.
The conditions of series [19]: cited from earlier work. This is another data set of the same source.
Details of series [20]: method as in doi:10.5772/intechopen.91700. As to conditions: cited from earlier work.
On the set-up of series [21]: method as in PMID 1897251. The following applies: rainbow trout, within 3 h, mainly as AcBZ; cited from earlier work.
Series [22] deals with Zebrafish embryos. Details: method as in PMID 27571242. The following applies: 48 h exposure; cited from earlier work.
Series [23] has as its system methemoglobin. Set-up: method as in PMID 32974865. The following applies: immersion in a sedating BZ dose or repeated anesthesia; cited from earlier work.
Series [24] is described as follows: UGT activities in salmon liver microsomes (SLMs) and S9. The following applies: SLMs (2 mg/mL) and S9 (4 mg/mL), 20 °C, up to 60 min.
Series [25] can be described thus: BZ metabolism in SLMs and S9 (LC-HRMS/MS). As to conditions: SLMs 1 µM BZ, S9 3 µM BZ (Figure 9 legend: 1 µM), 1 h.
Description: The production of BZ-related metabolites was determined by liquid chromatography high-resolution tandem mass spectrometry (LC-HRMS/MS).
Additionally, BZ metabolism was investigated in SLMs (1 µM BZ) and S9 (3 µM BZ) (Table 1). The incubations were first performed separately for phase I and phase II metabolism, and a combined assay was performed afterwards. The reaction mixture (total assay volume 0.5 mL) contained 0.8 mM NADPH, 0.7 mM NADP+, 7.5 mM UDPGA and 0.3 mM UDPAG. Aliquots (150 µL) were drawn at 0, 30 and 60 min and mixed with an equal volume of ice-cold 100% MeCN. […] After filtration (Costar Spin-X® 0.22 mm Nylon filter; Corning, Inc.; Corning, NY, USA), the concentrated samples were analyzed using LC-HRMS/MS.
as §1, §2
[26] abbreviates: different fish species including rainbow trout and Atlantic salmon.

With `Cc1ncc2n1-c1ccc(Cl)cc1C(c1ccccc1F)=NC2O` (stereo not shown) [4-OH-MDZ, 4-hydroxymidazolam], the “Formation of metabolites of specific CYP substrates in ASG-10” value in series [1] was “observed”.

Take `CCCCCCCCCc1ccc(O)cc1` [4-nonylphenol]: the “CYP1A1 activity in liver” value in [2] is given as “dose-dependently reduced”. The “CYP2K1 activity in liver” value in [3] is reported as “dose-dependently reduced”. In series [4], the “CYP3A27 activity in liver” value is given as “dose-dependently reduced”.

Regarding `O=c1[nH]c2cc(Cl)c(O)cc2o1` [6-OH-CH, 6-hydroxychlorzoxazone], in series [5], the “Formation of CYP-specific metabolites / substrate conversion in SLMs and S9” value is given as “low”.

As for `CCOC(=O)c1ccc(NC(C)=O)cc1` [AcBZ, acetylbenzocaine], the “BZ metabolites produced in ASG-10 cells” value in series [6] is “major biotransformation product”. In series [7], the “Hydroxylation product after incubation in SLMs” value is given as “no longer detectable”. In addition, the “time detected in most tissues after water exposure to BZ” value (from here on “time detected in most tissues”) in [8] is “up to 144 h”.

Consider `CC(=O)Nc1ccc(C(=O)O)cc1` [AcPABA, p-acetaminobenzoic acid], for which the “time detected in most tissues” value in [8] is “up to 144 h”.

For the molecule `O=c1cc(-c2ccccc2)oc2ccc3ccccc3c12` [BNF, β-naphthoflavone], the CYP1A protein increase result in series [9] (ASG-10, 1 nM BNF) is reported as “visible CYP1A protein increase”. Also, in series [9] (ASG-10, BNF 1 to 100 nM), the “CYP1A protein (immunochemical analysis)” value is recorded as “concentration-dependent increase”. Further, the “CYP1A enzyme activity (EROD assay)” value in series [10] was “concentration-dependent increase”. In [11], the “BNF concentration required to produce a detectable CYP1A protein increase” value is given as 1 µM. The “increase in EROD enzyme activity” value in [12] (PLHC-1, 100 nM BNF) is given as “eightfold”; in series [12] (PLHC-1, 1 µM BNF) it was 100 fold. Besides, in series [13], the “increase in the EROD rate” value was 30 fold. The “maximum EROD rate increase” value in series [14] is reported as “nine-fold”. In addition, the “CYP1A1 induction in salmon liver” value in series [15] is “can be induced”.

With `CCOC(=O)c1ccc(N)cc1` [BZ, ethyl 4-aminobenzoate], in [16], the “Metabolic activity or viability (Alamar Blue)” value is recorded as “did not affect”. Further, the “Cytotoxicity (Celltox Green assay)” value in series [17] is given as “no cytotoxicic effects”. Also, in series [18] (setting [26]), the distribution volumes result is “rather high” and the mean residence times result is given as “below 15 min”. Also, in series [18] (salmonids), the plasma half-life result was “less than 2 h”. For the same molecule, the “time to maximal concentrations in blood” value in series [18] (under water exposure) is given as “less than 2 min”. The “solubility in more lipidic solvents relative to water” value in [19] (MeOH and chloroform) is on record as roughly 1000 times. Also, in [19] (non-salt BZ, 20 °C), the water solubility was 400 µg/mL. The “n-octanol/water coefficient (pKOW)” value in series [20] was 1.44. In addition, the “share of applied BZ dose eliminated through the gills” value in [21] is “about 59%”. Moreover, the “time detected in most tissues” value in series [8] is given as “up to 144 h”. Also, in [22], the “AcBZ and PABA together as share of the total BZ amount” value is on record as 90%. Also, the “blood levels of methemoglobin” value in series [23] was “increased blood levels of methemoglobin”.

For `CCOC(=O)c1ccc(NO)cc1` [BZOH, Benzocaine hydroxylamine], the “BZ metabolites produced in ASG-10 cells” value in [6] was “produced”.

For the molecule `CN1CC[C@@]23CCCC[C@@H]2[C@@H]1Cc1ccc(O)cc13` [DOR, dextrophan], the “Formation of metabolites of specific CYP substrates in ASG-10” value in [1] was “observed”.

For the molecule `CC(=O)NCCc1c[nH]c2ccc(O[C@@H]3O[C@H](C(=O)O)[C@@H](O)[C@H](O)[C@H]3O)cc12` [NAS-GlcA, N-acetyl serotonin β-D-glucuronide], the “Formation of UGT-specific metabolites in SLMs and S9” value in series [24] is given as “low”.

As to `C=CCN1CC[C@]23c4c5ccc(O[C@@H]6O[C@H](C(=O)O)[C@@H](O)[C@H](O)[C@H]6O)c4O[C@H]2C(=O)CC[C@@]3(O)[C@H]1C5` [NLX-GlcA, naloxone-3β-D glucuronide], in series [24], the “Formation of UGT-specific metabolites in SLMs and S9” value is on record as “highest metabolite level”.

As to `Nc1ccc(C(=O)O)cc1` [PABA, p-aminobenzoic acid], the “BZ metabolites in SLM and S9 incubations” value in series [25] is given as “not detectable”.

As for `CN1CCN(CCCN2c3ccccc3Sc3ccc(C(F)(F)F)cc32)CC1` [TFP, trifluoperazine dihydrochloride], the “Formation of UGT-specific metabolites in SLMs and S9” value in series [24] is on record as “not measurable”.
